Laboratory results reported in ChEMBL document CHEMBL1152163, “Development of novel 2-[4-(aminoalkoxy)phenyl]-4(3H)-quinazolinone derivatives as potent and selective histamine H3 receptor inverse agonists” (Bioorg Med Chem Lett, 2008).

Key:
[1] = target: T1, Alpha-1A adrenergic receptor (Homo sapiens, UniProt P35348); test: Displacement of [3H]prazosin from human adrenergic alpha1A receptor expressed in LMtk- cells; assay type: cell-based
T1 sequence (P35348 whole entry): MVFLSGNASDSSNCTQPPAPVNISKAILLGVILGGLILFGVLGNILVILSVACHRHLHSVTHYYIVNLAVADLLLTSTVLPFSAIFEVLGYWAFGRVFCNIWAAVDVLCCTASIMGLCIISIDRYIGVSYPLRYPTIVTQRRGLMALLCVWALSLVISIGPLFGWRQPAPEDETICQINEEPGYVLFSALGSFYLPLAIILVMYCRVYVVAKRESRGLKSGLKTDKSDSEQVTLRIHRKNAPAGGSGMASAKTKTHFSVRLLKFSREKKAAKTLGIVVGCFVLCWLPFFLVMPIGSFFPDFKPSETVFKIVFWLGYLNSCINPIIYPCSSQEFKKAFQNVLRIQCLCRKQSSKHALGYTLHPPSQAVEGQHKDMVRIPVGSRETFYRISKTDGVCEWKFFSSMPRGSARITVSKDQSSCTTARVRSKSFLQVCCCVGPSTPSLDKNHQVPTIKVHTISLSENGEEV

[2] = target: Histamine H1 receptor (Homo sapiens, UniProt P35367); test: Inhibition of human histamine H1 receptor
Histamine H1 receptor, sequence (P35367 whole entry): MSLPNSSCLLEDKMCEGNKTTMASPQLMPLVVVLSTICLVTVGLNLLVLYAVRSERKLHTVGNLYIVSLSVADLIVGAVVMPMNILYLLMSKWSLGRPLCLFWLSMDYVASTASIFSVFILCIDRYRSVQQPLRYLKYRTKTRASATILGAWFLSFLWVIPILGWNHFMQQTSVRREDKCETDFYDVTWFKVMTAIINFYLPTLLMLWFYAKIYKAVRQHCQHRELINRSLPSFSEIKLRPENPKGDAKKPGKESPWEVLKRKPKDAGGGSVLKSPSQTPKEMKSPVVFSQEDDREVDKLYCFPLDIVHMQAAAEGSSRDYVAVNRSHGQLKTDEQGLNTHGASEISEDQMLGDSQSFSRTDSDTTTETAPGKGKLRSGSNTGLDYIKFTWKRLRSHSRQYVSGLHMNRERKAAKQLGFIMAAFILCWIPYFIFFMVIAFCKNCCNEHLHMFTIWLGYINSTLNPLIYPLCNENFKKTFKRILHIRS

[3] = target: Histamine H2 receptor (Homo sapiens, UniProt P25021); test: Inhibition of human histamine H2 receptor
Histamine H2 receptor, sequence (P25021 whole entry): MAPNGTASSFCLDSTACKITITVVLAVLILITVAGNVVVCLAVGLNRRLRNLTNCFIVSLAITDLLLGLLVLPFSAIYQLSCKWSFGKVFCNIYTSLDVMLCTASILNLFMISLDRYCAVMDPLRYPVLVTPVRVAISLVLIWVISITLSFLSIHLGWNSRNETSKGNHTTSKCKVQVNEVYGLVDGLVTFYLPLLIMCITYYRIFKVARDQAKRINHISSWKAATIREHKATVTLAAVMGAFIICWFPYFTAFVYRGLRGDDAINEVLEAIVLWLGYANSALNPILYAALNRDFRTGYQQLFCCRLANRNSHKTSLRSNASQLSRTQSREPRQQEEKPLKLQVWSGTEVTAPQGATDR

[4] = target: Histamine H4 receptor (Homo sapiens, UniProt Q9H3N8); test: Inhibition of human histamine H4 receptor
[5] = test system: Rattus norvegicus; test: Plasma clearance in Sprague-Dawley rat at 1 mg/kg, iv; assay type: ADME, organism-based; parameters: dose 1 mg/kg, route intravenous; settings: in vivo
[6] = Volume of distribution at steady state in Sprague-Dawley rat at 1 mg/kg, iv; assay type: ADME, organism-based; parameters: dose 1 mg/kg, route intravenous; settings: in vivo, read-out: Vdss
[7] = Half life in Sprague-Dawley rat at 1 mg/kg, iv; assay type: ADME, organism-based; parameters: dose 1 mg/kg, route intravenous; settings: in vivo
[8] = Cmax in Sprague-Dawley rat at 3 mg/kg, po; assay type: ADME, organism-based; parameters: dose 3 mg/kg, route oral; settings: in vivo
[9] = AUC (0 to infinity) in Sprague-Dawley rat at 3 mg/kg, po; assay type: ADME, organism-based; parameters: time infinity, dose 3 mg/kg, route oral; settings: plasma
[10] = Oral bioavailability in Sprague-Dawley rat; assay type: ADME, organism-based; settings: in vivo
[11] = test system: Brain; test: Drug level in Sprague-Dawley rat brain at 10 mg/kg, po; assay type: ADME, organism-based; parameters: dose 10 mg/kg, route oral; settings: in vivo
[12] = test system: Rattus norvegicus; test: Plasma concentration in Sprague-Dawley rat at 10 mg/kg, po; assay type: ADME, organism-based; parameters: dose 10 mg/kg, route oral; settings: in vivo
[13] = test system: Rattus norvegicus; test: Increase in tele-methylhistamine level in po dosed Sprague-Dawley rat brain; assay type: functional, organism-based

IC50 [1]	Structure (SMILES)	further results
7.2 µM	O=c1c2ccccc2nc(-c2ccc(OCCCN3CCCCC3)cc2)n1Cc1ccccc1	–
4.5 µM	Cn1c(-c2ccc(OC3CCN(C4CCC4)CC3)cc2)nc2c(F)cccc2c1=O	–
2.2 µM	Cn1c(-c2ccc(OCCCN3CCCC3)cc2)nc2ccccc2c1=O	–
1.3 µM	CCn1c(-c2ccc(OCCCN3CCCCC3)cc2)nc2ccccc2c1=O	–
> 10 µM	COc1cccc2c(=O)n(C)c(-c3ccc(OC4CCN(C5CCC5)CC4)cc3)nc12	–
6.3 µM	Cn1c(-c2ccc(OC3CCN(C4CCC4)CC3)cc2)nc2ccccc2c1=O	–
> 10 µM	Cn1c(-c2ccc(OC3CCN(C4CCC4)CC3)cc2)nc2c(C(F)(F)F)cccc2c1=O	–
10 µM	Cc1cccc2c(=O)n(C)c(-c3ccc(OC4CCN(C5CCC5)CC4)cc3)nc12	–
2.4 µM	O=c1c2ccccc2nc(-c2ccc(OCCCN3CCCCC3)cc2)n1-c1ccccc1	–
4.2 µM	COc1cccc2nc(-c3ccc(OC4CCN(C5CCC5)CC4)cc3)n(C)c(=O)c12	–
> 10 µM	COc1nccc2c(=O)n(C)c(-c3ccc(OC4CCN(C5CCC5)CC4)cc3)nc12	IC50 [2]: > 10 µM; IC50 [3]: > 10 µM; IC50 [4]: > 10 µM; clearance [5]: 29 mL/min/kg; Vd [6]: 4.8 L/kg; half-life [7]: 2 h; Cmax [8]: 570 nM; AUC(0-inf) [9]: 2.1 µM·h; bioavailability [10]: 48%; Drug uptake [11]: 2.96 nmol/g; concentration [12]: 2080 nM; Activity [13]: Dose-dependent effect
6.5 µM	Cc1nc2ccccc2c(=O)n1-c1ccc(OCCCN2CCCCC2)cc1	–
6.5 µM	Cn1c(-c2ccc(OC3CCN(C4CCC4)CC3)cc2)nc2c(Cl)cccc2c1=O	–
2.9 µM	Cn1c(-c2ccc(OCCCN3CCCCC3)cc2)nc2ccccc2c1=O	–
6.2 µM	Cn1c(-c2ccc(OC3CCN(C4CCCC4)CC3)cc2)nc2ccccc2c1=O	–
5.9 µM	COc1ccc2nc(-c3ccc(OC4CCN(C5CCC5)CC4)cc3)n(C)c(=O)c2c1	–
> 10 µM	COc1ccc2c(=O)n(C)c(-c3ccc(OC4CCN(C5CCC5)CC4)cc3)nc2c1	–
